How the values were obtained:
Experiment in all cases: Kinobeads competition binding, L-363 cell lysate
Conditions in all cases: 10 μM free compound, L-363 lysate
RIPK2 = RIPK2 (Homo sapiens, UniProt O43353); parameters: capturing and identification of kinases from L-363 cell lysate; endogenous in cells; host or cells: L-363 (DSMZ ACC49), treated with MG132 before harvest
Experimental: (§1) To one aliquot of cell lysate 10 μM of the free compound (FIG. 3, CZC31326) was added and allowed to bind to proteins in the lysate. Then the affinity matrix with the immobilized compound was added to capture proteins that were not interacting with the previously added free compound. Beads were separated from the lysate and bead bound proteins were eluted in SDS sample buffer and subsequently separated by SDS-Polyacrylamide gel electrophoresis (FIG. 8). Suitable gel bands were cut out and subjected to in-gel proteolytic digestion with trypsin. The second lysate aliquot was processed identically, however no free compound was added (DMSO solvent control). Peptides originating from samples 1 and 2 were labeled with iTRAQ reagents (iTRAQ 114 and iTRAQ 117) and the combined samples were analyzed with a nano-flow liquid chromatography system coupled online to a tandem mass spectrometer (LC-MS/MS) experiment followed by iTRAQ reporter ion quantification in the MS/MS spectra as described in Example 2.
(§2) For this experiment the human plasma cell leukaemia line L-363 was used (German Collection of Microorganisms and Cell Cultures, DSMZ number ACC49, Braunschweig, Germany). Cells were treated for three hours with 20 μM of the proteasome inhibitor MG132 (Z-Leu-Leu-Leu-al, Sigma C2211) prior to cell harvesting.

BCR = BCR (Homo sapiens, UniProt P11274); parameters: capturing and identification of kinases from L-363 cell lysate; endogenous in cells; host or cells: L-363 (DSMZ ACC49), treated with MG132 before harvest
Experimental: as §1, §2

LYN = LYN (Homo sapiens, UniProt P07948); parameters: capturing and identification of kinases from L-363 cell lysate; endogenous in cells; host or cells: L-363 (DSMZ ACC49), treated with MG132 before harvest
Experimental: as §1, §2

MAP2K6 = MAP2K6 (Homo sapiens, UniProt P52564); parameters: capturing and identification of kinases from L-363 cell lysate; endogenous in cells; host or cells: L-363 (DSMZ ACC49), treated with MG132 before harvest
Experimental: as §1, §2

RSK4 = target: T1, RSK4 (Homo sapiens, UniProt Q9UK32)
T1 construct: endogenous in cells; host or cells: L-363 (DSMZ ACC49), treated with MG132 before harvest
Experimental: as §1, §2

NEK1 = target: T2, NEK1 (Homo sapiens, UniProt Q96PY6)
T2 construct: capturing and identification of kinases from L-363 cell lysate; endogenous in cells; host or cells: L-363 (DSMZ ACC49), treated with MG132 before harvest
Experimental: as §1, §2

PIK4Ca = target: T3, PIK4Ca (Homo sapiens, UniProt P42356)
T3 construct: capturing and identification of kinases from L-363 cell lysate; endogenous in cells; host or cells: L-363 (DSMZ ACC49), treated with MG132 before harvest
Experimental: as §1, §2

DRAK2 = target: T4, DRAK2 (Homo sapiens, UniProt O94768)
T4 construct: capturing and identification of kinases from L-363 cell lysate; endogenous in cells; host or cells: L-363 (DSMZ ACC49), treated with MG132 before harvest
Experimental: as §1, §2

NIK = target: T5, NIK (Homo sapiens, UniProt Q99558)
T5 construct: capturing and identification of kinases from L-363 cell lysate; endogenous in cells; host or cells: L-363 (DSMZ ACC49), treated 3 h with 20 uM MG132 before harvest
Experimental: as §1, §2

DYRK1A = target: T6, DYRK1A (Homo sapiens, UniProt Q13627)
T6 construct: capturing and identification of kinases from L-363 cell lysate; endogenous in cells; host or cells: L-363 (DSMZ ACC49), treated with MG132 before harvest
Experimental: as §1, §2

ULK1 = target: T7, ULK1 (Homo sapiens, UniProt O75385)
T7 construct: endogenous in cells; host or cells: L-363 (DSMZ ACC49), treated with MG132 before harvest
Experimental: as §1, §2

JAK3 = target: T8, JAK3 (Homo sapiens, UniProt P52333)
T8 construct: capturing and identification of kinases from L-363 cell lysate; endogenous in cells; host or cells: L-363 (DSMZ ACC49), treated with MG132 before harvest
Experimental: as §1, §2

NuaK2 = target: T9, NuaK2 (Homo sapiens, UniProt Q9H093)
T9 construct: capturing and identification of kinases from L-363 cell lysate; endogenous in cells; host or cells: L-363 (DSMZ ACC49), treated with MG132 before harvest
Experimental: as §1, §2

HRI = target: T10, HRI (Homo sapiens, UniProt Q9BQI3)
T10 construct: capturing and identification of kinases from L-363 cell lysate; endogenous in cells; host or cells: L-363 (DSMZ ACC49), treated with MG132 before harvest
Experimental: as §1, §2

INSR = target: T11, INSR (Homo sapiens, UniProt P06213)
T11 construct: capturing and identification of kinases from L-363 cell lysate; endogenous in cells; host or cells: L-363 (DSMZ ACC49), treated with MG132 before harvest
Experimental: as §1, §2

SLK = SLK (Homo sapiens, UniProt Q9H2G2)
Experimental: as §1, §2

ULK3 = target: T12, ULK3 (Homo sapiens, UniProt Q6PHR2)
T12 sequence (Q6PHR2 1-472): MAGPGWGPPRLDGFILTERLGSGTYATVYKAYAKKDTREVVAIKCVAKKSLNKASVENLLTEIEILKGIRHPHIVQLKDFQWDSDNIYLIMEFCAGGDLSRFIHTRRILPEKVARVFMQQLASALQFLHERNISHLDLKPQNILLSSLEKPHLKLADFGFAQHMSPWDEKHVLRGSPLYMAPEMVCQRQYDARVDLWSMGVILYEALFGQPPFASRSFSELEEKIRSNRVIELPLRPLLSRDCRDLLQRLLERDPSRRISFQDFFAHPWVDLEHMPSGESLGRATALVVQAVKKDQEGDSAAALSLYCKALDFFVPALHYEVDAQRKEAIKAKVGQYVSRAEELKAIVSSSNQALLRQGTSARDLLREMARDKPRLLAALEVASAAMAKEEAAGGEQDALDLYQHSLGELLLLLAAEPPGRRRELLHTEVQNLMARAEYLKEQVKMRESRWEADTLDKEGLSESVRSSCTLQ
Experimental: as §1, §2

NEK6 = target: T13, NEK6 (Homo sapiens, UniProt Q9HC98)
T13 construct: capturing and identification of kinases from L-363 cell lysate; endogenous in cells; host or cells: L-363 (DSMZ ACC49), treated with MG132 before harvest
Experimental: as §1, §2

NEK7 = target: T14, NEK7 (Homo sapiens, UniProt Q8TDX7)
T14 construct: capturing and identification of kinases from L-363 cell lysate; endogenous in cells; host or cells: L-363 (DSMZ ACC49), treated with MG132 before harvest
Experimental: as §1, §2

MAP2K6, sequence (P52564 whole entry): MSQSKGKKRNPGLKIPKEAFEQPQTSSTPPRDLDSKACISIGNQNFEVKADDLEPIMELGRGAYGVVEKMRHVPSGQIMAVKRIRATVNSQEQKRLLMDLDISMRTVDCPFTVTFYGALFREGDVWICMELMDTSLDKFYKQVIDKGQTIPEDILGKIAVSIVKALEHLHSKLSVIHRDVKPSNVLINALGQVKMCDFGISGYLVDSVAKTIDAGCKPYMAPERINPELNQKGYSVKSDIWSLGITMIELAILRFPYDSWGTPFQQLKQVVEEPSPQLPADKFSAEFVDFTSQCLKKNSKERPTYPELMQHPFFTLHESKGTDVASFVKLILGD
SLK, sequence (Q9H2G2 whole entry): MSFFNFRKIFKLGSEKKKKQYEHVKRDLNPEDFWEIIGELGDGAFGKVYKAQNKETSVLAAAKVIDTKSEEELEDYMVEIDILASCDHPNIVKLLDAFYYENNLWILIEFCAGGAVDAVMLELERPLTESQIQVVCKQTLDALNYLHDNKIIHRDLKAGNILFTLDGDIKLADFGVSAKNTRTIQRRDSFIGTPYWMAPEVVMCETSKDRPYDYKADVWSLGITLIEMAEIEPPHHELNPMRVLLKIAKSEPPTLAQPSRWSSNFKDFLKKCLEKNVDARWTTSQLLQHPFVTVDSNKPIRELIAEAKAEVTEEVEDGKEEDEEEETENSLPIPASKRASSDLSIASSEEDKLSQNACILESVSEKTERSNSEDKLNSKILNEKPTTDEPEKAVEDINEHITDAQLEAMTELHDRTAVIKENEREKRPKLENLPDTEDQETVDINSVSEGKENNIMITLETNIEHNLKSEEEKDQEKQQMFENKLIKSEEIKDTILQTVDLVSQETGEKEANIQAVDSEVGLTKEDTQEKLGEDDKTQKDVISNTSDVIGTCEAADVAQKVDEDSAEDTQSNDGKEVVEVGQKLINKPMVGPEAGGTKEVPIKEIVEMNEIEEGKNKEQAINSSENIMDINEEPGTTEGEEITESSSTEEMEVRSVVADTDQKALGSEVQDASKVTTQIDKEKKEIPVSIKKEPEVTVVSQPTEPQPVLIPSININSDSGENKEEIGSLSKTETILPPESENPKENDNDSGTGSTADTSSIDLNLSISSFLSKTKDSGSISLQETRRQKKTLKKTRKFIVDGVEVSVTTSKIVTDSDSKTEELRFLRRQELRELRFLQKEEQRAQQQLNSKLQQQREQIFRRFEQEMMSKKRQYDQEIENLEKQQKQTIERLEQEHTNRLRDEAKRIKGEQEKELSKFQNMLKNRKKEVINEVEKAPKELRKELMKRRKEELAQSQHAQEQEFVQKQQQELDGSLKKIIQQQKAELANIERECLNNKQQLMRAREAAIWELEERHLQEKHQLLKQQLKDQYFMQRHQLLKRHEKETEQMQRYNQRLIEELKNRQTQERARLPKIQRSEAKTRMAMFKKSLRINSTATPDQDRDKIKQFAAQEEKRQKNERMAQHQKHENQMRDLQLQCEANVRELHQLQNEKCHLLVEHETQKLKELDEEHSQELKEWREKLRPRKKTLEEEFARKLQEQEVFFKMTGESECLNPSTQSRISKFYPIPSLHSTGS
T8 sequence (P52333 whole entry): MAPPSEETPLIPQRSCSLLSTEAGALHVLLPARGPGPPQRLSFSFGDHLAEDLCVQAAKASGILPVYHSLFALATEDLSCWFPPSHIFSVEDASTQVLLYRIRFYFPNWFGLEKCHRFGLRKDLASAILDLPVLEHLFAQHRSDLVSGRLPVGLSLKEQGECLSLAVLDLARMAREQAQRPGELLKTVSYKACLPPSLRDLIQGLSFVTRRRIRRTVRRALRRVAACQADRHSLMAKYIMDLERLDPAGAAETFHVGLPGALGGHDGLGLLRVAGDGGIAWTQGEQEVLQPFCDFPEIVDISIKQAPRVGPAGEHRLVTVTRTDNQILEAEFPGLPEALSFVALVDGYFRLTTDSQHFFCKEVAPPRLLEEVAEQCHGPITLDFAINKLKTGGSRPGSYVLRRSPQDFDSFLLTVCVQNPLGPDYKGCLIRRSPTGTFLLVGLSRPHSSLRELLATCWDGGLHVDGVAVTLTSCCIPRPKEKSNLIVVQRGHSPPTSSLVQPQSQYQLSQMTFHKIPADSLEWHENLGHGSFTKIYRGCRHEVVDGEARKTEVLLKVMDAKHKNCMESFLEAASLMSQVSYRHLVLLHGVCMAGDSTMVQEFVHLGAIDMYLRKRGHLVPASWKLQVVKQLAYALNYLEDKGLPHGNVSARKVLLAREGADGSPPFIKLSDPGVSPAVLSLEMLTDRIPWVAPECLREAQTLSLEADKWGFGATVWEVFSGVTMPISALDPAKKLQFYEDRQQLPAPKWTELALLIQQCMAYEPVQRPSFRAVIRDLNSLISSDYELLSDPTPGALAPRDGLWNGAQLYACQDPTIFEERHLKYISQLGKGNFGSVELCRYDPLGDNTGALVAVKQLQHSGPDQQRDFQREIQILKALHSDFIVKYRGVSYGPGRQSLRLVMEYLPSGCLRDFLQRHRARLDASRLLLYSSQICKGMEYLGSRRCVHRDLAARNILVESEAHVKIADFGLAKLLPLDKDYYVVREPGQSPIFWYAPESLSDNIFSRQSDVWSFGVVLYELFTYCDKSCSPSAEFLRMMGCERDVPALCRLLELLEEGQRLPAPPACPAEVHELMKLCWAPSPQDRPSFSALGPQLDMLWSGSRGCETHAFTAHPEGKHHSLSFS
T9 sequence (Q9H093 whole entry): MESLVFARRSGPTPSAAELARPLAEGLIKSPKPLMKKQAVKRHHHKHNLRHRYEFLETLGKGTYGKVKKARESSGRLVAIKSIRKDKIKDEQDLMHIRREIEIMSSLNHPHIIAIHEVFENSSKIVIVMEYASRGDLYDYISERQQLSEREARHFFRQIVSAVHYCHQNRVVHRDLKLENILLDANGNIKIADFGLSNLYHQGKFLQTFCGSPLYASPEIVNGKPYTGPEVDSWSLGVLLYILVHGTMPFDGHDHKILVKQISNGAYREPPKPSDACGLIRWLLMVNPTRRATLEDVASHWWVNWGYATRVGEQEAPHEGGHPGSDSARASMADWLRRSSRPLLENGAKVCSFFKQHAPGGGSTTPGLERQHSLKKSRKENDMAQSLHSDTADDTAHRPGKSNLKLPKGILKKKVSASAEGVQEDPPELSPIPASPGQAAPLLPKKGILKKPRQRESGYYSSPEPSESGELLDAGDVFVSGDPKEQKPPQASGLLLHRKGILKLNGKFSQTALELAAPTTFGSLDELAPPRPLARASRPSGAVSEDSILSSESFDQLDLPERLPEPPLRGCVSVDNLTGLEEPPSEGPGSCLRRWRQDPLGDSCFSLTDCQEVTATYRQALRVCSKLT
T13 sequence (Q9HC98 whole entry): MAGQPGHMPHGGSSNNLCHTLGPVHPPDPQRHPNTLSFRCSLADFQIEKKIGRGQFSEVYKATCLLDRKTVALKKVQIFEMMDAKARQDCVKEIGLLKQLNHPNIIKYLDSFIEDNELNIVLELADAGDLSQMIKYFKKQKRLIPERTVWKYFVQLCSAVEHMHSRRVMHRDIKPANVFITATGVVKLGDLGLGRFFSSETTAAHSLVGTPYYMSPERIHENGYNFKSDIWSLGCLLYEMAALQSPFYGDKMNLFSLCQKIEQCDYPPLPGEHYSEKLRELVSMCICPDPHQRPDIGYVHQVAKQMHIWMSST
T4 sequence (O94768 whole entry): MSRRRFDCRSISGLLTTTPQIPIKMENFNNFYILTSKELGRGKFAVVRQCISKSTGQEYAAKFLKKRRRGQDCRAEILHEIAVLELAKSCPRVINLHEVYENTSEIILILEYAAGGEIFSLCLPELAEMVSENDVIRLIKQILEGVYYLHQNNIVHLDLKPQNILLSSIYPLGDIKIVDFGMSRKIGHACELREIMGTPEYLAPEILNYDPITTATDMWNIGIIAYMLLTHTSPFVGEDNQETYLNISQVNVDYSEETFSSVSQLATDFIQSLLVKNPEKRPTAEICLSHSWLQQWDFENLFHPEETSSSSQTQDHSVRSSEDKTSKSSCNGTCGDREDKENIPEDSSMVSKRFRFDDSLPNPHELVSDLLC
LYN, sequence (P07948 whole entry): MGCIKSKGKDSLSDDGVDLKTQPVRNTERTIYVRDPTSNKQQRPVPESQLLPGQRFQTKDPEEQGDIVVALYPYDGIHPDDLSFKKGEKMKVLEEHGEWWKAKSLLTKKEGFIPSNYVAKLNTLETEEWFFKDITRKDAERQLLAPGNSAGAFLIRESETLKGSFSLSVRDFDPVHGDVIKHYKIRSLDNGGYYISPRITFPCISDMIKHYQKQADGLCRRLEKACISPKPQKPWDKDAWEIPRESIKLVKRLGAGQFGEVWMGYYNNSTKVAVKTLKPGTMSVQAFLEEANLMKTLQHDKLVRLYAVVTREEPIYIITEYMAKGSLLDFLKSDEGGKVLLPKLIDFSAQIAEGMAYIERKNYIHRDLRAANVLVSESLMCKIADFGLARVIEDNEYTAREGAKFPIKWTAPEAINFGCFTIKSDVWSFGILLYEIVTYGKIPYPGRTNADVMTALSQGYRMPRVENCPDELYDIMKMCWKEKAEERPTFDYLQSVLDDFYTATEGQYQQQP
T14 sequence (Q8TDX7 whole entry): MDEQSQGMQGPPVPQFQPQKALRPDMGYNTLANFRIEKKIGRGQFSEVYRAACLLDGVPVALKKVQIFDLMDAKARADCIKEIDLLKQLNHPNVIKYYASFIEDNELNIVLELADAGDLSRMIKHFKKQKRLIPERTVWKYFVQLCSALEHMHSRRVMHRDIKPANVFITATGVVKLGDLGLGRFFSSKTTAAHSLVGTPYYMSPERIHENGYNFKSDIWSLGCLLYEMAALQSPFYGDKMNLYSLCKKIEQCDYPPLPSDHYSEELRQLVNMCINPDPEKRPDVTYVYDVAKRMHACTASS

Q: Which inhibition at 10 µM (RIPK2) does the source give for `CS(=O)(=O)Nc1ccccc1Nc1nc(Nc2cccc(OCCN)c2)ncc1Cl` [CZC31326, N-(2-(2-(3-(2-aminoethoxy)phenylamino)-5-chloropyrimidin-4-ylamino)phenyl)methanesulfonamide] here?
A: 95.5%

Q: What about the inhibition at 10 µM (BCR) of the same molecule?
A: 93.6%

Q: What about the inhibition at 10 µM (LYN) of the same molecule?
A: 94.5%

Q: And the inhibition at 10 µM (MAP2K6)?
A: 94.2%

Q: And the Competition % (RSK4)?
A: 96.7%

Q: What about the inhibition at 10 µM (NEK1) of the same molecule?
A: 95.7%

Q: What about the inhibition at 10 µM (PIK4Ca) of the same molecule?
A: 86%

Q: What about the inhibition at 10 µM (DRAK2) of the same molecule?
A: 93.3%

Q: What about the inhibition at 10 µM (NIK) of the same molecule?
A: 98%

Q: What about the inhibition at 10 µM (DYRK1A) of the same molecule?
A: 96.5%

Q: And the Competition % (ULK1)?
A: 96.5%

Q: What about the inhibition at 10 µM (JAK3) of the same molecule?
A: 98.1%

Q: And the Competition % (NuaK2)?
A: 96.7%

Q: And the inhibition at 10 µM (HRI)?
A: 95.8%

Q: What about the inhibition at 10 µM (INSR) of the same molecule?
A: 90.1%

Q: What about the inhibition at 10 µM (SLK) of the same molecule?
A: 95%

Q: What about the Competition % (ULK3) of the same molecule?
A: 98.5%

Q: What about the inhibition at 10 µM (NEK6) of the same molecule?
A: 83.7%

Q: And the inhibition at 10 µM (NEK7)?
A: 93.9%

— patent publication US20120270237A9, “METHODS FOR THE IDENTIFICATION OF KINASE INTERACTING MOLECULES AND FOR THE PURIFICATION OF KINASE PROTEINS” (Cellzone AG, priority 2009, published 2012)
